In patent US20230099441A1, “HETEROCYCLIC COMPOUND, APPLICATION THEREOF, AND COMPOSITION CONTAINING SAME” (GenEros Biopharma Ltd., priority 2019, published 2023):

Tested on: STAT5 Y694 phosphorylation
Assay: Protein electrophoresis and blotting of STAT5 Y694 phosphorylation in Jurkat cells stimulated with human interferon beta
Assay type: cell-based
Conditions: for Inhibiting Ratio (0% for vehicle control): 1 hour pretreatment, 20 ng/ml human interferon beta 30 minutes, pSTAT5/GAPDH; for Example of Effect 1: Inhibiting Ability (Protein Electrophoresis and Blotting): observed pSTAT5 bands at 10 μM and 100 μM
Description: Example of Effect 1: Protein Electrophoresis and Blotting Experiment
Standard protein electrophoresis and chemiluminescence imaging equipment (Bio-Rad);
Protein lysate RIPA (Lianke Biological; Cat #WB020); Western blot transfer membrane PVDF (Millipore; Cat #IPVH00010);
Jurkat cells (ATCC American Standard Culture Center, TIB152) were cultured in a 6-well plate at a density of 1×10^6/ml with RPMI medium […] 10% fetal bovine serum in a humidified incubator at 37° C. and maintained at 5% carbon dioxide overnight. On the second day, the cells were pretreated with compounds of different concentrations (the mother liquor of the compound prepared by dimethyl sulfoxide was diluted in the medium at the required concentration) for 1 hour, and then stimulated with 20 ng/ml human interferon beta for 30 minutes, it was mixed thoroughly and then placed in an incubator at 37° C. environment. […] Then an appropriate volume of RIPA Lysis Solution was added, it was mixed well, and placed on ice for 1 hour, inverted and mixed several times in the middle. Then, the cell lysate was centrifuged at 12000 rpm at 4° C. for 10 minutes, and the supernatant was transferred to another test tube, aliquoted and stored at −20° C. until use.
An equal volume of protein lysate was mixed with an appropriate 6-fold protein loading buffer (Biyun Tian Biochemical Company P0015F), and the mixture was heated at 95 degrees for 10 minutes, after full denaturation, the protein sample was added to the polyacrylamide gel (self-made, raw material purchased from Soleibao Biotechnology Company A1010, 30% acrylamide solution), and electrophoresis was performed at the appropriate voltage for 1 hour, until the strips were fully separated. It was transferred to a polyvinylidene fluoride membrane according to standard procedures, and blocked with 5% skim milk for 1 hour, and the specified antibody was added, and it was diluted 1:1000 in 3% bovine serum albumin, and it was incubated overnight for four degrees. It was thoroughly rinsed, incubated with the secondary antibody, exposed to chemiluminescence and signals were collected. ImageJ software was used to quantify the obtained chemiluminescence results. The same area was selected, the gray values of STAT5 phosphorylation band and GAPDH band of each sample were analyzed, and the ratio of pSTAT5/GAPDH level was calculated. The value of the solvent-treated sample was 100%, and the remaining samples were converted into relative data in the same proportion, that is, the percentage corresponding to the solvent sample. […] The solvent control group was the same as the test compound group except that DMSO was used instead of the DMSO solution of the test compound. N1 (Pimozide) was a specific positive control.

Row | SMILES | Inhibiting Ratio (0% for vehicle control) (1 μM) [%] | Inhibiting Ratio (0% for vehicle control) (10 μM) [%] | Inhibiting Ratio (0% for vehicle control) (100 μM) [%] | Example of Effect 1: Inhibiting Ability (Protein Electrophoresis and Blotting)
1 | O=c1[nH]c2ccccc2n1-c1ccn2c(=O)cc(Cc3ccc(F)cc3)cc2c1 [Example X9, 2-(4-fluorobenzyl)-8-(2-oxo-2,3-dihydro-1H-benzo[d]imidazol-1-yl)-4H-quinazine-4-one] | 6.0 | 44.3 | 100.0 | +
2 | O=C(Cc1ccncc1)N1CCC(n2c(=O)[nH]c3ccccc32)CC1 [Example X3, 1-(1-(2-(pyridin-4-yl)acetyl)piperidin-4-yl)-1H-benzo[d]imidazole-2(3H)-one] | 17.4 | 4.7 | 87.5 | −
3 | O=C(Cc1ccc(C(F)(F)F)cc1)N[C@H]1CC[C@H](n2c(=O)[nH]c3ccccc32)CC1 [GEN1-022, Trans-N-(4-(2-oxo-2,3-dihydro-1H-benzo[d]imidazol-1-yl)cyclohexyl)-2-(4-(trifluoromethyl)phenyl)acetamide] | 15.8 | 29.5 | 81.2 | −
4 | O=C(Cc1ccc(C(F)(F)F)cc1)N1CCC(n2c(=O)c(=O)[nH]c3ccccc32)CC1 [GEN1-127, 1-(1-(2-(4-(trifluoromethyl)phenyl)acetyl)piperidin-4-yl)-1,4-dihydroquinoxaline-2,3-dione] |  |  |  | +
5 | O=C(Cc1ccc(C(F)(F)F)cc1)N1CCC(n2c(=O)[nH]c3cnccc32)CC1 [GEN1-042, 1-(1-(2-(4-(trifluoromethyl)phenyl)acetyl)piperidin-4-yl)-1H-imidazo[4,5-c]pyridin-2(3H)-one] |  |  |  | +
6 | O=C(Cc1ccc(C2CC2)cc1)N1CCC(n2c(=O)[nH]c3ccccc32)CC1 [GEN1-032, 1-(1-(2-(4-cyclopropylphenyl)acetyl)piperidin-4-yl)-1H-benzo[d]imidazole-2(3H)-one] | −16.3 | 13.8 | 94.9 | +
7 | CC(C)(C)c1ccc(CC(=O)N2CCC(n3c(=O)[nH]c4cccc(C(F)(F)F)c43)CC2)cc1 [GEN1-115, 1-(1-(2-(4-(tert-butyl)phenyl)acetyl)piperidin-4-yl)-7-(trifluoromethyl)-1^1H-benzo[d]imidazol-2(3H)-one] |  |  |  | +
8 | O=C(CC12CC3CC(CC(C3)C1)C2)N1CCC(n2c(=O)[nH]c3ccccc32)CC1 [GEN1-098, 1-(1-(2-(adamantan-1-yl)acetyl)piperidin-4-yl)-1H-benzo[d]imidazol-2(3H)-one] |  |  |  | +
9 | O=C(Cc1ccc(C(F)(F)F)o1)N1CCC(n2c(=O)[nH]c3ccccc32)CC1 [GEN1-078, 1-(1-(2-(5-(trifluoromethyl)furan-2-yl)acetyl)piperidin-4-yl)-1H-benzo[d]imidazol-2(3H)-one] |  |  |  | +
10 | COc1ccc(CC(=O)N2CCC(n3c(=O)[nH]c4ccccc43)CC2)cc1 [GEN1-070, 1-(1-(2-(4-methoxyphenyl)acetyl)piperidin-4-yl)-1H-benzo[d]imidazol-2(3H)-one] |  |  |  | −
11 | COc1cccc2c1[nH]c(=O)n2C1CCN(C(=O)Cc2ccc(C(F)(F)F)cc2)CC1 [GEN1-003, 4-methoxy-1-(1-(2-(4-(trifluoromethyl)phenyl)acetyl)piperidin-4-yl)-1H-benzo[d]imidazole-2(3H)-one] | −10.8 | 22.2 | 94.1 | +
12 | NC(=O)N(c1ccccn1)C1CCN(C(=O)Cc2ccc(C(F)(F)F)cc2)CC1 [GEN1-164, 1-(pyridin-2-yl)-1-(1-(2-(4-(trifluoromethyl)phenyl)acetyl)piperidin-4-yl)urea] |  |  |  | −
13 | O=C(Cc1ccc(O)cc1)N1CCC(n2c(=O)[nH]c3ccccc32)CC1 [GEN1-071, 1-(1-(2-(4-hydroxyphenyl)acetyl)piperidin-4-yl)-1H-benzo[d]imidazol-2(3H)-one] |  |  |  | −
14 | O=C(Cc1ccc(C(F)(F)F)cc1)N1CCC(n2c(=O)[nH]c3ncccc32)CC1 [GEN1-041, 1-(1-(2-(4-(trifluoromethyl)phenyl)acetyl)piperidin-4-yl)-1H-imidazo[4,5-b]pyridine-2(3H)-one] |  |  |  | +
15 | O=C(Cc1cccc(C(F)(F)F)c1)N1CCC(n2c(=O)[nH]c3ccccc32)CC1 [GEN1-029, 1-(1-(2-(3-(trifluoromethyl)phenyl)acetyl)piperidin-4-yl)-1H-benzo[d]imidazole-2(3H)-one] | −74.1 | −67.7 | 92.3 | +
16 | O=C(N1CCC(n2c(=O)[nH]c3cccc(C(F)(F)F)c32)CC1)C1(c2ccc(C(F)(F)F)cc2)CC1 [GEN1-146, 7-(trifluoromethyl)-1-(1-(1-(4-(trifluoromethyl)phenyl)cyclopropane-1-carbonyl)piperidin-4-yl)-1,3-dihydro-2H-benzo[d]imidazol-2-one] |  |  |  | +
17 | O=C(Cc1ccc(C(F)(F)F)cc1)N1CCC(n2c(=O)n(O)c3ccccc32)CC1 [GEN1-059, 1-hydroxy-3-(1-(2-(4-(trifluoromethyl)phenyl)acetyl)piperidin-4-yl)-1H-benzo[d]imidazol-2(3H)-one] |  |  |  | −
18 | O=C1CCN(C2CCN(C(=O)Cc3ccc(C(F)(F)F)cc3)CC2)c2ccccc2N1 [GEN1-102, 5-(1-(2-(4-(trifluoromethyl)phenyl)acetyl)piperidin-4-yl)-4,5-dihydro-1H-benzo[b][1,4]diazepine-2(3H)-one] |  |  |  | +
19 | O=C(Cc1ccc(C(F)(F)F)cc1)NCC1Cc2cccc3[nH]c(=O)n(c23)C1 (centres unmarked) [GEN1-065] |  |  |  | −
20 | O=C(Nc1ccccn1)NC1CCN(C(=O)Cc2ccc(C(F)(F)F)cc2)CC1 [GEN1-163, 1-(pyridin-2-yl)-3-(1-(2-(4-(trifluoromethyl)phenyl)acetyl)piperidin-4-yl)urea] |  |  |  | −
21 | O=C(CC(F)(F)F)N1CCC(n2c(=O)[nH]c3ccccc32)CC1 [Example X2, 1-(1-(3,3,3-trifluoropropionyl)piperidin-4-yl)-1H-benzo[d]imidazole-2(3H)-one] |  |  |  | −
22 | O=C(Cc1ccc(C(F)(F)F)cc1)N[C@H]1C[C@@H](n2c(=O)[nH]c3ccccc32)C1 [GEN1-024, N-((1s,3s)-3-(2-oxo-2,3-dihydro-1H-benzo[d]imidazol-1-yl)cyclobutyl)-2-(4-(trifluoromethyl)phenyl)acetamide] |  |  |  | −
23 | O=C1Nc2ccccc2C1C1CCN(C(=O)Cc2ccc(C(F)(F)F)cc2)CC1 (centres unmarked) [GEN1-051, 3-(1-(2-(4-(trifluoromethyl)phenyl)acetyl)piperidin-4-yl)indol-2-one] |  |  |  | +
24 | O=C(Cc1ccc(C(F)(F)F)cc1)N1CCC(n2c(=O)[nH]c3ccc(O)cc32)CC1 [GEN1-012, 6-hydroxy-1-(1-(2-(4-(trifluoromethyl)phenyl)acetyl)piperidin-4-yl)-1H-benzo[d]imidazole-2 (3H)-one] |  |  |  | +
25 | O=C(Cc1ccc(C(F)(F)F)cn1)N1CCC(n2c(=O)[nH]c3ccccc32)CC1 [GEN1-028, 1-(1-(2-(5-(trifluoromethyl)pyridin-2-yl)acetyl)piperidin-4-yl)-1H-benzo[d]imidazole-2(3H)-one] | 14.5 | 32.6 | 93.3 | −
26 | O=c1[nH]c2ccccc2n1C1CCN(CCCC(c2ccc(F)cc2)c2ccc(F)cc2)CC1 [Example N1, Pimozide, reference compound] | −0.6 | 5.9 | 95.4 | +
